According to patent publication US20120244567A1, “HUMAN EMBRYONIC STEM CELLS FOR HIGH THROUGHOUT DRUG SCREENING” (BUCK INSTITUTE FOR RESEARCH ON AGING, priority 2009, published 2012):
Structures can show the parent of a compound that is named as a salt. Where two headings read alike, the source gives them in different places.

Test system: dopaminergic neurons
Experimental: RNAs isolated from NSCs and neurons with and without drug treatments were hybridized to Illumina HumanRef-8 BeadChip (Illumina, Inc., San Diego, Calif., performed by Microarray core facility at the Burnham Institute for Medical Research). The Illumina array data were normalized by the quantile method, and then transformed log 2 ratio values for a zero mean for expression values of each gene across all samples. The statistical and bioinformatics analyses were conducted by using R and the bioconductor package (www.bioconductor.org). The gene set enrichment analysis was conducted using the GSEA software (www.broad.mit.edu/gsea).

[1] = Amiloride sensitive Na channels, 4 hours of exposure
[2] = Amine transporters, 4 hours of exposure
[3] = Ca activated K channels, 4 hours of exposure
[4] = Calcium channels, 4 hours of exposure
[5] = Cl channels, 4 hours of exposure
[6] = Delayed rectifier K channels, 4 hours of exposure
[7] = H ion transporters, 4 hours of exposure
[8] = Rectifier K channels, 4 hours of exposure
[9] = Voltage gated Na channels, 4 hours of exposure

CCCCc1oc2ccccc2c1C(=O)c1cc(I)c(OCCN(CC)CC)c(I)c1 [Amiodarone Hydrochloride]
ACCN1 gene expression, Treated DA Neuron [1]: 387.4
ACCN2 gene expression, Treated DA Neuron [1]: 862.7
ACCN3 gene expression, Treated DA Neuron [1]: 35.7
SLC1A2 gene expression, Treated DA Neuron [2]: 809.7
SLC1A3 gene expression, Treated DA Neuron [2]: 2926
SLC6A3 gene expression, Treated DA Neuron [2]: 23.4
SLC6A9 gene expression, Treated DA Neuron [2]: 36570.5
SLC6A12 gene expression, Treated DA Neuron [2]: 10.8
ATP1A1 gene expression, Treated DA Neuron (Amine transporters, first line for this gene, 4 hours of exposure): 426.9
ATP1A1 gene expression, Treated DA Neuron (Amine transporters, second line for this gene, 4 hours of exposure): 471
KCNMB1 gene expression, Treated DA Neuron [3]: 44.8
KCNN1 gene expression, Treated DA Neuron [3]: 48.4
KCNN2 gene expression, Treated DA Neuron [3]: 55.6
KCNN3 gene expression, Treated DA Neuron [3]: 181.7
CACNA1A gene expression, Treated DA Neuron [4]: 64.4
CACNA1C gene expression, Treated DA Neuron [4]: 146.9
CACNB2 gene expression, Treated DA Neuron [4]: 155.2
CACNG2 gene expression, Treated DA Neuron [4]: 123.8
CLCN2 gene expression, Treated DA Neuron [5]: 24
CLCN3 gene expression, Treated DA Neuron [5]: 541.2
CLCN6 gene expression, Treated DA Neuron [5]: 998.5
CLCN7 gene expression, Treated DA Neuron [5]: 1261
CLIC1 gene expression, Treated DA Neuron [5]: 22.9
KCNA5 gene expression, Treated DA Neuron [6]: 99.9
KCNB1 gene expression, Treated DA Neuron [6]: 145.4
KCNB2 gene expression, Treated DA Neuron [6]: 94.5
ATP5B gene expression, Treated DA Neuron [7]: 5217.1
ATP6V0A2 gene expression, Treated DA Neuron [7]: 131.3
ATP6V0D1 gene expression, Treated DA Neuron [7]: 2920.7
ATP6V1A gene expression, Treated DA Neuron [7]: 2621.5
ATP6V1B2 gene expression, Treated DA Neuron [7]: 724.8
SLC2A1 gene expression, Treated DA Neuron [7]: 87.1
SLC2A11 gene expression, Treated DA Neuron [7]: .9
SLC35B1 gene expression, Treated DA Neuron [7]: 1450.4
KCNC4 gene expression, Treated DA Neuron [8]: 58.7
KCND2 gene expression, Treated DA Neuron [8]: 269.9
KCNF1 gene expression, Treated DA Neuron [8]: 479.7
KCNG1 gene expression, Treated DA Neuron [8]: 351
KCNJ4 gene expression, Treated DA Neuron [8]: 66.1
KCNJ6 gene expression, Treated DA Neuron [8]: 297.7
KCNJ11 gene expression, Treated DA Neuron [8]: 44.4
KCNQ3 gene expression, Treated DA Neuron [8]: 23.2
KCNQ2 gene expression, Treated DA Neuron (Rectifier K channels, first line for this gene, 4 hours of exposure): 1753.5
KCNQ2 gene expression, Treated DA Neuron (Rectifier K channels, second line for this gene, 4 hours of exposure): 434.4
SCN1A gene expression, Treated DA Neuron [9]: 115.6
SCN3A gene expression, Treated DA Neuron [9]: 60.4
SCN9A gene expression, Treated DA Neuron [9]: 245.7
AFF1 expression, Treated Neuron (four hours after exposure): 1
ARID3A expression, Treated Neuron (four hours after exposure): 201
ASCL2 expression, Treated Neuron (four hours after exposure): 1
DDIT3 expression, Treated Neuron (four hours after exposure): 170
DLX2 expression, Treated Neuron (four hours after exposure): 1
E2F2 expression, Treated Neuron (four hours after exposure): 63.2
E2F7 expression, Treated Neuron (four hours after exposure): 43
E2F8 expression, Treated Neuron (four hours after exposure): 1
EGR1 expression, Treated Neuron (four hours after exposure): 109
EGR2 expression, Treated Neuron (four hours after exposure): 1
ELF4 expression, Treated Neuron (four hours after exposure): 1
ELF5 expression, Treated Neuron (four hours after exposure): 1
ELK3 expression, Treated Neuron (four hours after exposure): 1
ELK4 expression, Treated Neuron (four hours after exposure): 1
EN1 expression, Treated Neuron (four hours after exposure): 1
ERG expression, Treated Neuron (four hours after exposure): 1
ETS1 expression, Treated Neuron (four hours after exposure): 1
ETV1 expression, Treated Neuron (four hours after exposure): 1
ETV4 expression, Treated Neuron (four hours after exposure): 1
FLI1 expression, Treated Neuron (four hours after exposure): 11.3
FOS expression, Treated Neuron (four hours after exposure): 1980
FOSB expression, Treated Neuron (four hours after exposure): 346
FOXA2 expression, Treated Neuron (four hours after exposure): 1
FOXC1 expression, Treated Neuron (four hours after exposure): 32.6
FOXD1 expression, Treated Neuron (four hours after exposure): 1
FOXF2 expression, Treated Neuron (four hours after exposure): 1
FOXL2 expression, Treated Neuron (four hours after exposure): 1
FOXM1 expression, Treated Neuron (four hours after exposure): 27.7
GATA2 expression, Treated Neuron (four hours after exposure): 1
GLI2 expression, Treated Neuron (four hours after exposure): 5.2
HCLS1 expression, Treated Neuron (four hours after exposure): 1
HEY2 expression, Treated Neuron (four hours after exposure): 1
HIRA expression, Treated Neuron (four hours after exposure): 24.2
HMGB2 expression, Treated Neuron (four hours after exposure): 163
HOXA13 expression, Treated Neuron (four hours after exposure): 1
HOXB1 expression, Treated Neuron (four hours after exposure): 1
HOXB2 expression, Treated Neuron (four hours after exposure): 24
HOXB3 expression, Treated Neuron (four hours after exposure): 1
HOXB4 expression, Treated Neuron (four hours after exposure): 1
HOXB5 expression, Treated Neuron (four hours after exposure): 1
HOXD3 expression, Treated Neuron (four hours after exposure): 1
L3MBTL expression, Treated Neuron (four hours after exposure): 97.7
LHX8 expression, Treated Neuron (four hours after exposure): 1
MEF2C expression, Treated Neuron (four hours after exposure): 49.8
MEOX1 expression, Treated Neuron (four hours after exposure): 1
MSX2 expression, Treated Neuron (four hours after exposure): 1
MYEF2 expression, Treated Neuron (four hours after exposure): 25.3
NFATC3 expression, Treated Neuron (four hours after exposure): 1
NFATC4 expression, Treated Neuron (four hours after exposure): 1
NFKB2 expression, Treated Neuron (four hours after exposure): 5.3
NR1D2 expression, Treated Neuron (four hours after exposure): 1
NR2C2 expression, Treated Neuron (four hours after exposure): 5.7
NR4A2 expression, Treated Neuron (four hours after exposure): 212
NRK expression, Treated Neuron (four hours after exposure): 1
PAX8 expression, Treated Neuron (four hours after exposure): 1
PBX2 expression, Treated Neuron (four hours after exposure): 1
PRDM1 expression, Treated Neuron (four hours after exposure): 1
PRRX2 expression, Treated Neuron (four hours after exposure): 1
RELB expression, Treated Neuron (four hours after exposure): 31.9
RUNX1 expression, Treated Neuron (four hours after exposure): 1
SALL1 expression, Treated Neuron (four hours after exposure): 1
SIX4 expression, Treated Neuron (four hours after exposure): 5.7
STAT6 expression, Treated Neuron (four hours after exposure): 1
TAF5L expression, Treated Neuron (four hours after exposure): 17.5
TAF13 expression, Treated Neuron (four hours after exposure): 1
TBX2 expression, Treated Neuron (four hours after exposure): 1
TEAD4 expression, Treated Neuron (four hours after exposure): 1
TEF expression, Treated Neuron (four hours after exposure): 23.5
TGIF1 expression, Treated Neuron (four hours after exposure): 1
TP53 expression, Treated Neuron (four hours after exposure): 23.7
ZNF85 expression, Treated Neuron (four hours after exposure): 5.6
ZNF197 expression, Treated Neuron (four hours after exposure): 5.1
ZNF274 expression, Treated Neuron (four hours after exposure): 1
ZNF367 expression, Treated Neuron (four hours after exposure): 1
ZSCAN29 expression, Treated Neuron (four hours after exposure): 1
